From ChEMBL document CHEMBL1821589, “Synthesis and structure-activity relationship of 1- and 2-substituted-1,2,3-triazole letrozole-based analogues as aromatase inhibitors” (Eur J Med Chem, 2011)
Activity calls are given as the source filed them. The rule behind the calls is not given here.

test system: NCI-H295R; assay: Antiproliferative activity against human NCI-H295R cells at 10 nM after 24 hrs by Cell titer blue assay; type: functional; details: not given

Row | Structure (SMILES) | growth inhibition (GI)
1 | N#Cc1ccc(OCc2cn(Cc3ccccc3)nn2)cc1 | inactive

same assay, conditions: read-out: GI

Row | Structure (SMILES) | inhibition of growth at 0.01 µM
2 | N#Cc1ccc(OCc2cn(C(c3ccc(C#N)cc3)c3ccc(C#N)cc3)nn2)cc1 | 76%

test system: NCI-H295R; assay: Antiproliferative activity against human NCI-H295R cells at 10 nM after 72 hrs by Cell titer blue assay; type: functional; details: not given

Row | Structure (SMILES) | growth inhibition (GI)
3 | N#Cc1ccc(OCc2cn(Cc3ccccc3)nn2)cc1 | inactive

same assay, conditions: read-out: GI

Row | Structure (SMILES) | inhibition of growth at 0.01 µM
4 | N#Cc1ccc(OCc2cn(C(c3ccc(C#N)cc3)c3ccc(C#N)cc3)nn2)cc1 | 99%

target: T1, Aromatase (Homo sapiens, UniProt P11511); assay: Inhibition of aromatase using 7-methoxy-4-trifluoromethyl coumarin as substrate after 30 mins by fluorescence-based colorimetric analysis; details: not given
T1 sequence (P11511 whole entry): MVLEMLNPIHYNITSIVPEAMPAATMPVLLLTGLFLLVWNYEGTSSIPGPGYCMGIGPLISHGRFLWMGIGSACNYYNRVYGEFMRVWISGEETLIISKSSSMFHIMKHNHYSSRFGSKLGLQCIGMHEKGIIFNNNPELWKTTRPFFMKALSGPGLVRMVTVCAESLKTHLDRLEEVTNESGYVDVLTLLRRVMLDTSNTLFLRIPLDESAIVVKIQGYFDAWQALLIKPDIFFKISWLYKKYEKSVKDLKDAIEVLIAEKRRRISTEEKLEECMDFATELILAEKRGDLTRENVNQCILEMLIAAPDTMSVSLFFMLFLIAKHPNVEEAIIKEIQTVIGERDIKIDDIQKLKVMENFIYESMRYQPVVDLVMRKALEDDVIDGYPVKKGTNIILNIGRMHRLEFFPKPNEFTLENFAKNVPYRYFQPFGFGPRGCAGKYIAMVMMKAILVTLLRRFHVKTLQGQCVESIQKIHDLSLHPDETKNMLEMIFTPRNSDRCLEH

Row | Structure (SMILES) | IC50
5 | N#Cc1ccc(Cn2cc(COc3ccc(C#N)cc3)nn2)cc1 | 9.16 µM
6 | N#Cc1ccc(C(c2ccc(C#N)cc2)n2cc(COc3ccc(-c4ccccc4)cc3)nn2)cc1 | 13.3 µM
7 | Cc1ccc(OCc2cn(C(c3ccc(C#N)cc3)c3ccc(C#N)cc3)nn2)cc1 | 11 µM
8 | c1ccc(OCc2cn(C(c3ccccc3)c3ccccc3)nn2)cc1 | 31.3 µM
9 | CCCCCCCCCCc1cn(Cc2ccc(C#N)cc2)nn1 | 7.88 µM
10 | Cc1ccc(OCc2cn(Cc3ccc(C#N)cc3)nn2)cc1 | 4.17 µM
11 | N#Cc1ccc(OCc2cn(C(c3ccc(C#N)cc3)c3ccc(C#N)cc3)nn2)cc1 | 4.64 µM
12 | c1ccc(Cn2cncn2)cc1 | 4.11 µM
13 | N#Cc1ccc(C(c2ccc(C#N)cc2)n2cc(COc3ccccc3)nn2)cc1 | 11 µM
14 | Cc1ccc(OCc2cn(Cc3ccccc3)nn2)cc1 | 2.27 µM
15 | c1ccc(C(c2ccccc2)n2ccnn2)cc1 | 4.58 µM
16 | CCCc1cn(C(c2ccccc2)c2ccccc2)nn1 | 11 µM
17 | CCCCCCCc1cn(Cc2ccccc2)nn1 | 9.53 µM
18 | N#Cc1ccc(Cn2cc(C3CCCCC3)nn2)cc1 | 10.7 µM
19 | N#Cc1ccc(C(c2ccc(C#N)cc2)n2cc(-c3ccccc3)nn2)cc1 | 10.3 µM
20 | c1ccc(Cn2cc(COc3ccc(-c4ccccc4)cc3)nn2)cc1 | 10.7 µM
21 | c1ccc(Cn2nccn2)cc1 | 16.3 µM
22 | CCCc1cn(Cc2ccc(C#N)cc2)nn1 | 4.37 µM
23 | N#Cc1ccc(Cn2cc(COc3ccccc3)nn2)cc1 | 6.09 µM
24 | N#Cc1ccc(C(c2ccc(C#N)cc2)n2cc(C3CCCCC3)nn2)cc1 | 19.3 µM
25 | CCCCCCc1cn(Cc2ccccc2)nn1 | 7.47 µM

Row | Structure (SMILES) | IC50
26 | Clc1ccc(OCc2cn(C(c3ccccc3)c3ccccc3)nn2)cc1 | 13.4 µM
27 | CCCCCCCc1cn(C(c2ccccc2)c2ccccc2)nn1 | 19.4 µM
28 | c1ccc(Cn2cc(-c3ccccc3)nn2)cc1 | 9.77 µM
29 | CCCCCCCCCCc1cn(Cc2ccccc2)nn1 | 6.4 µM
30 | O=[N+]([O-])c1ccc(OCc2cn(Cc3ccccc3)nn2)cc1 | 2.78 µM
31 | CCCCCCCCCCc1cn(C(c2ccc(C#N)cc2)c2ccc(C#N)cc2)nn1 | 16 µM
32 | COc1ccc(OCc2cn(C(c3ccc(C#N)cc3)c3ccc(C#N)cc3)nn2)cc1 | 12.2 µM
33 | CCCCCCc1cn(Cc2ccc(C#N)cc2)nn1 | 5.26 µM
34 | N#Cc1ccc(OCc2cn(Cc3ccccc3)nn2)cc1 | 1.36 µM
35 | c1ccc(C(c2ccccc2)n2cc(C3CCCCC3)nn2)cc1 | 13.7 µM
36 | CCCCCCCc1cn(C(c2ccc(C#N)cc2)c2ccc(C#N)cc2)nn1 | 10.6 µM
37 | CCCCCCCCCCc1cn(C(c2ccccc2)c2ccccc2)nn1 | 13.5 µM
38 | c1ccc(Cn2cc(C3CCCCC3)nn2)cc1 | 7.98 µM
39 | c1ccc(-c2cn(C(c3ccccc3)c3ccccc3)nn2)cc1 | 12.9 µM
40 | CCCc1cn(Cc2ccccc2)nn1 | 12.6 µM
41 | Cc1ccc(OCc2cn(C(c3ccccc3)c3ccccc3)nn2)cc1 | 26.8 µM
42 | N#Cc1ccc(C(c2ccc(C#N)cc2)n2cc(COc3ccc([N+](=O)[O-])cc3)nn2)cc1 | 7.73 µM
43 | CCCc1cn(C(c2ccc(C#N)cc2)c2ccc(C#N)cc2)nn1 | 4.7 µM
44 | COc1ccc(OCc2cn(C(c3ccccc3)c3ccccc3)nn2)cc1 | 15.2 µM
45 | N#Cc1ccc(Cn2cncn2)cc1 | 0.15 µM
46 | c1ccc(Cn2ccnc2)cc1 [BENZYLIMIDAZOLE] | 0.15 µM

Row | Structure (SMILES) | IC50
47 | N#Cc1ccc(Cn2cc(COc3ccc(Cl)cc3)nn2)cc1 | 3.91 µM
48 | c1ccc(C(c2ccccc2)n2cncn2)cc1 | 1.1 µM
49 | N#Cc1ccc(Cn2cc(COc3ccc([N+](=O)[O-])cc3)nn2)cc1 | 5.62 µM
50 | COc1ccc(OCc2cn(Cc3ccc(C#N)cc3)nn2)cc1 | 2.34 µM
51 | COc1ccc(OCc2cn(Cc3ccccc3)nn2)cc1 | 17.3 µM
52 | O=[N+]([O-])c1ccc(OCc2cn(C(c3ccccc3)c3ccccc3)nn2)cc1 | 11.6 µM
53 | N#Cc1ccc(C(c2ccc(C#N)cc2)n2nccn2)cc1 | 80 µM
54 | c1ccc(Cn2ccnn2)cc1 | 11.9 µM
55 | CCCCCCc1cn(C(c2ccc(C#N)cc2)c2ccc(C#N)cc2)nn1 | 5.07 µM
56 | Clc1ccc(OCc2cn(Cc3ccccc3)nn2)cc1 | 5.04 µM
57 | N#Cc1ccc(OCc2cn(C(c3ccccc3)c3ccccc3)nn2)cc1 | 16.4 µM
58 | N#Cc1ccc(Cn2ccnn2)cc1 | 0.1 µM
59 | N#Cc1ccc(Cn2cc(COc3ccc(-c4ccccc4)cc3)nn2)cc1 | 11.6 µM
60 | c1ccc(C(c2ccccc2)n2nccn2)cc1 | 12 µM
61 | N#Cc1ccc(C(c2ccc(C#N)cc2)n2cc(COc3ccc(Cl)cc3)nn2)cc1 | 16.1 µM
62 | c1ccc(Cn2cc(COc3ccccc3)nn2)cc1 | 10.6 µM
63 | N#Cc1ccc(Cn2cc(-c3ccccc3)nn2)cc1 | 3.38 µM
64 | CCCCCCCc1cn(Cc2ccc(C#N)cc2)nn1 | 3.07 µM
65 | N#Cc1ccc(Cn2nccn2)cc1 | 12.2 µM
66 | CCCCCCc1cn(C(c2ccccc2)c2ccccc2)nn1 | 14.8 µM
67 | c1ccc(-c2ccc(OCc3cn(C(c4ccccc4)c4ccccc4)nn3)cc2)cc1 | 15.5 µM

test system: NCI-H295R; assay: Antiproliferative activity against human NCI-H295R cells assessed as cell viability at 10 nM after 24 to 72 hrs by Cell titer blue assay; type: functional; details: read-out: GI

Row | Structure (SMILES) | inhibition of growth at 0.01 µM
68 | N#Cc1ccc(C(c2ccc(C#N)cc2)n2ccnc2)cc1 | 40%

target: T1, Aromatase; assay: Ratio of letrozole IC50 to compound IC50 for aromatase; details: not given

Row | Structure (SMILES) | Ratio IC50
69 | N#Cc1ccc(Cn2ccnn2)cc1 | 12.5

test system: NCI-H295R; assay: Antiproliferative activity against human NCI-H295R cells assessed as [3H]thymidine incorporation at 10 nM after 24 hrs by scintillation counting; type: functional; details: read-out: GI

Row | Structure (SMILES) | inhibition of growth at 0.01 µM
70 | N#Cc1ccc(C(c2ccc(C#N)cc2)n2cncn2)cc1 [LETROZOLE] | 10%
